# From patent publication US20080292619A1, “Pharmaceutical Composition Containing Meltrin Antagonist” (MOCHIDA PHARMACEUTICAL CO., LTD., priority 2004, published 2008)
# In the oligonucleotide strings, read from the 5' end, every base follows the letter of its sugar. An asterisk marks phosphorothioate; unmarked linkages are phosphodiester. Other units and linkages are bracketed, terminal groups are in braces. A string of capitals states the bases alone. d = 2'-deoxy (DNA)
# Tested on: human meltrin α RNA
# Test: Suppression of human meltrin α expression by antisense compound in RD cell (real time PCR)
# Format: cell-based
# Conditions: 50 nM; RD cell; corrected by GAPDH
# In short: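 RD cells transfected with heat-denatured antisense oligodeoxynucleotide plus Lipofectin in Opti-MEM for 4 h at 37° C, then cultured 18 h. Meltrin α RNA quantified by TaqMan RT-PCR against plasmid standard curve, GAPDH-corrected; suppression vs untreated cells, rated +/++/+++ for ≥30/50/70%.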
row,Substance,"suppression rate of expression, 50 nM"
1,"H118: ggaggtgcccagtgggcctc (GGAGGTGCCCAGTGGGCCTC; antisense; DNA, all phosphorothioate, methylation of C not given here)",+ (“+” when the suppression rate was at least 30%)
2,"H130 + 5: gagcctgacagggttggaag (GAGCCTGACAGGGTTGGAAG; antisense; DNA, all phosphorothioate, methylation of C not given here)",++ (“++” when the suppression rate was at least 50%)
3,"H130 + 10: gaggtgagcctgacagggtt (GAGGTGAGCCTGACAGGGTT; antisense; DNA, all phosphorothioate, methylation of C not given here)",+ (“+” when the suppression rate was at least 30%)
4,"H130 + 15: tggccgaggtgagcctgaca (TGGCCGAGGTGAGCCTGACA; antisense; DNA, all phosphorothioate, methylation of C not given here)",++ (“++” when the suppression rate was at least 50%)
5,"H131 + 5: ttttccaaggtggccgaggt (TTTTCCAAGGTGGCCGAGGT; antisense; DNA, all phosphorothioate, methylation of C not given here)",+ (“+” when the suppression rate was at least 30%)
6,"H131 + 10: aggccttttccaaggtggcc (AGGCCTTTTCCAAGGTGGCC; antisense; DNA, all phosphorothioate, methylation of C not given here)",+ (“+” when the suppression rate was at least 30%)
7,"H132 + 15: gtaggaatctggcggcttcc (GTAGGAATCTGGCGGCTTCC; antisense; DNA, all phosphorothioate, methylation of C not given here)",+ (“+” when the suppression rate was at least 30%)
8,"H132 + 17: gggtaggaatctggcggctt (GGGTAGGAATCTGGCGGCTT; antisense; DNA, all phosphorothioate, methylation of C not given here)",++ (“++” when the suppression rate was at least 50%)
9,"H132 + 18: tgggtaggaatctggcggct (TGGGTAGGAATCTGGCGGCT; antisense; DNA, all phosphorothioate, methylation of C not given here)",+ (“+” when the suppression rate was at least 30%)
10,"H132 + 19: gtgggtaggaatctggcggc (GTGGGTAGGAATCTGGCGGC; antisense; DNA, all phosphorothioate, methylation of C not given here)",+ (“+” when the suppression rate was at least 30%)
11,"H133 + 1: cggtgggtaggaatctggcg (CGGTGGGTAGGAATCTGGCG; antisense; DNA, all phosphorothioate, methylation of C not given here)",++ (“++” when the suppression rate was at least 50%)
12,"H133 + 3: ttcggtgggtaggaatctgg (TTCGGTGGGTAGGAATCTGG; antisense; DNA, all phosphorothioate, methylation of C not given here)",+ (“+” when the suppression rate was at least 30%)
13,"H133 + 4: cttcggtgggtaggaatctg (CTTCGGTGGGTAGGAATCTG; antisense; DNA, all phosphorothioate, methylation of C not given here)",++ (“++” when the suppression rate was at least 50%)
14,"H133 + 5: ccttcggtgggtaggaatct (CCTTCGGTGGGTAGGAATCT; antisense; DNA, all phosphorothioate, methylation of C not given here)",+ (“+” when the suppression rate was at least 30%)
15,"H133: ggtgggtaggaatctggcgg (GGTGGGTAGGAATCTGGCGG; antisense; DNA, all phosphorothioate, methylation of C not given here)",+++ (“+++” when the suppression rate was at least 70%)
16,"H134: atctcctgggattgtccttc (ATCTCCTGGGATTGTCCTTC; antisense; DNA, all phosphorothioate, methylation of C not given here)",+ (“+” when the suppression rate was at least 30%)
17,"H135: aacattctgacactgcagca (AACATTCTGACACTGCAGCA; antisense; DNA, all phosphorothioate, methylation of C not given here)",+ (“+” when the suppression rate was at least 30%)
18,"H136 + 5: ggccgttgaggggtctgctg (GGCCGTTGAGGGGTCTGCTG; antisense; DNA, all phosphorothioate, methylation of C not given here)",+ (“+” when the suppression rate was at least 30%)
19,"H136 + 15: gggacattcaggccgttgag (GGGACATTCAGGCCGTTGAG; antisense; DNA, all phosphorothioate, methylation of C not given here)",+ (“+” when the suppression rate was at least 30%)
20,"H136 + 16: agggacattcaggccgttga (AGGGACATTCAGGCCGTTGA; antisense; DNA, all phosphorothioate, methylation of C not given here)",+ (“+” when the suppression rate was at least 30%)
21,"H136 + 17: gagggacattcaggccgttg (GAGGGACATTCAGGCCGTTG; antisense; DNA, all phosphorothioate, methylation of C not given here)",+ (“+” when the suppression rate was at least 30%)
22,"H136 + 18: tgagggacattcaggccgtt (TGAGGGACATTCAGGCCGTT; antisense; DNA, all phosphorothioate, methylation of C not given here)",++ (“++” when the suppression rate was at least 50%)
23,"H136: ttgaggggtctgctgatgtc (TTGAGGGGTCTGCTGATGTC; antisense; DNA, all phosphorothioate, methylation of C not given here)",+ (“+” when the suppression rate was at least 30%)
24,"H137 + 1: ggctgagggacattcaggcc (GGCTGAGGGACATTCAGGCC; antisense; DNA, all phosphorothioate, methylation of C not given here)",++ (“++” when the suppression rate was at least 50%)
25,"H137 + 2: gggctgagggacattcaggc (GGGCTGAGGGACATTCAGGC; antisense; DNA, all phosphorothioate, methylation of C not given here)",+++ (“+++” when the suppression rate was at least 70%)
26,"H137 + 3: ggggctgagggacattcagg (GGGGCTGAGGGACATTCAGG; antisense; DNA, all phosphorothioate, methylation of C not given here)",++ (“++” when the suppression rate was at least 50%)
27,"H137 + 4: tggggctgagggacattcag (TGGGGCTGAGGGACATTCAG; antisense; DNA, all phosphorothioate, methylation of C not given here)",++ (“++” when the suppression rate was at least 50%)
28,"H137: gctgagggacattcaggccg (GCTGAGGGACATTCAGGCCG; antisense; DNA, all phosphorothioate, methylation of C not given here)",++ (“++” when the suppression rate was at least 50%)

# Same assay, conditions: 200 nM; RD cell; corrected by GAPDH
row,Substance,"suppression rate of expression, 200 nM"
1,H115: tggcactgcattgcacactc (dT*dG*dG*dC*dA*dC*dT*dG*dC*dA*dT*dT*dG*dC*dA*dC*dA*dC*dT*dC; antisense),++ (“++” when the suppression rate was at least 50%)
2,"H117: gcagtggcagttcttcctgt (GCAGTGGCAGTTCTTCCTGT; antisense; DNA, all phosphorothioate, methylation of C not given here)",+ (“+” when the suppression rate was at least 30%)
3,"H118: ggaggtgcccagtgggcctc (GGAGGTGCCCAGTGGGCCTC; antisense; DNA, all phosphorothioate, methylation of C not given here)",++ (“++” when the suppression rate was at least 50%)
4,"H119: agccaaacttgtcacagaag (AGCCAAACTTGTCACAGAAG; antisense; DNA, all phosphorothioate, methylation of C not given here)",+ (“+” when the suppression rate was at least 30%)
5,"H123: caggatggtcaccagaattc (CAGGATGGTCACCAGAATTC; antisense; DNA, all phosphorothioate, methylation of C not given here)",+ (“+” when the suppression rate was at least 30%)
6,"H126: cagcagtcgtatcaaggtct (CAGCAGTCGTATCAAGGTCT; antisense; DNA, all phosphorothioate, methylation of C not given here)",+ (“+” when the suppression rate was at least 30%)
7,"H129: gggtggccgggaagggcgca (GGGTGGCCGGGAAGGGCGCA; antisense; DNA, all phosphorothioate, methylation of C not given here)",++ (“++” when the suppression rate was at least 50%)
8,"H132: cttcctcatcaggccttttc (CTTCCTCATCAGGCCTTTTC; antisense; DNA, all phosphorothioate, methylation of C not given here)",++ (“++” when the suppression rate was at least 50%)
9,"H133: ggtgggtaggaatctggcgg (GGTGGGTAGGAATCTGGCGG; antisense; DNA, all phosphorothioate, methylation of C not given here)",+++ (“+++” when the suppression rate was at least 70%)
10,"H134: atctcctgggattgtccttc (ATCTCCTGGGATTGTCCTTC; antisense; DNA, all phosphorothioate, methylation of C not given here)",++ (“++” when the suppression rate was at least 50%)
11,"H135: aacattctgacactgcagca (AACATTCTGACACTGCAGCA; antisense; DNA, all phosphorothioate, methylation of C not given here)",++ (“++” when the suppression rate was at least 50%)
12,"H136: ttgaggggtctgctgatgtc (TTGAGGGGTCTGCTGATGTC; antisense; DNA, all phosphorothioate, methylation of C not given here)",+++ (“+++” when the suppression rate was at least 70%)
13,"H137: gctgagggacattcaggccg (GCTGAGGGACATTCAGGCCG; antisense; DNA, all phosphorothioate, methylation of C not given here)",++ (“++” when the suppression rate was at least 50%)
